Data: patent US9926529B2, “Derivation of neural stem cells and dopaminergic neurons from human pluripotent stem cells” (International Stem Cell Corporation, priority 2012, dated 2018)
Where two headings read alike, the source gives them in different places.

Columns and labels:
hPSC-NSCs [1] = assay: RT-PCR expression of dopamine neuron genes in hPSC-NSCs treated with small molecule hits; assay type: cell-based, human; settings: Homo sapiens, Neuron, 336 h, hPSC-NSCs primed 7 days with Purmorphamine and FGF8, small molecule 2.5 μM for two weeks
Experimental: (§1) The method specifically involved treating both hESC-H9-NSCs (Invitrogen) and hPSC-NSCs with Purmorphamine (2 μM) and FGF8 (100 ng/mL) in NB medium [NeuroBasal medium, 1× GlutaMAX, 1× N2/B27 Supplement (Invitrogen)] for 7 days. After 7 days of Purmorphamine and FGF8 treatment, the NSCs were dissociated with Accutase (Sigma) and plated 20,000 cells/mL into Matrigel coated 96 well plates and treated with small molecule library (Torcris 1120 Biologically Active Compounds) at 2.5 μM final concentration for two weeks (FIG. 6A). Two weeks after treatment with small molecules, all wells were visually observed and scored based on neurite density and dopamine release. For measuring neurite density, cells were fixed with 4% paraformaldehyde and phase contrast images were acquired using Cellavista Cell Imaging System (Roche Applied Science) from randomly selected fields. Neurite density was measured using the Cellavista density software image processing program. Each experimental condition was done in duplicate wells, and at least three independent experiments were conducted to acquire the final results.
(§2) Conditioned medium from the top neurite inducers (Table 1) (wells containing the highest density of neurites compare to control 0.1% DMSO treated) were collected and analyzed using a dopamine ELISA assay (Cosmo Bio). Conditioned medium was collected from samples containing 50,000 cells per well and centrifuged at 3000 RPM to remove cell debris. Supernatant was then collected and analyzed for quantitative determination of dopamine using a commercial dopamine ELISA assay kit (CusaCosmo Bio). Data analysis was performed using the microtiter plate reader (BIO-TEK Synergy 2). The results presented are from three independent experiments (n=3) and represented as mean±standard error of mean (s.e.m.) and statistical analysis was performed using the two-tailed Student's t-test with a confidence level of 95% (α=0.05) with statistical significance of P<0.05. Additionally, total RNA from each well were collected and analyze by RT-PCR for expression of TuJ1, MAP2, TH, GRK2, EN1, DAT, AADC, PAX2, NURR1, PITX3 and LMX1B from hPSC-NSCs (Table 2). […] Analysis of the ELISA data indicated the top small molecule neurite inducers produced higher levels of dopamine than control non-treated cells (1.5 ng/mL). […] The percentages of TH positive cells produced by chemical treatment with Kenpaullone (33%), Guggulsterone (35%), Kynurenic Acid (19%), Immedthridine Dihydrobromide (21%), and Dimaprit Dihydrochloride (18%) were higher than 15% of TH positive cells obtained from hPSC-NSCs differentiated for ≥1 month using a standard dopaminergic differentiation medium (BDNF 20 ng/mL, GDNF 20 ng/mL, cAMP 200 μM, Abscorbic Acid 200 μM, TGFβ3 2 ng/mL and DAPT).
Total RNA from at least triplicate samples with around 1 million cells each was isolated using either QIAsymphony automatic purification system or RNeasy Plus Mini kit, according to manufacturer's instructions (Qiagen). Total RNA was used for reverse transcription with the iScript cDNA synthesis kit (Biorad) and Px2 Thermal Cycler (Thermo Scientific). To analyze gene expression, PCR reactions were performed in duplicate using 1/25-th of the cDNA per reaction and the QuantiTect Primer Assay and Quantitest SYBR Green master mix (Qiagen). qPCR was performed using the Rotor-Gene Q (Qiagen) 5 min at 95° C., 5 s at 92° C., and 20 s at 60° C. for 37 cycles followed by melt to check the specificity of the amplicons from 50 to 99° C. raising by 1° C. each step. Relative quantification was performed against a standard curve and quantified values were normalized against the input determined by PPIG. The primers used for the analysis are listed in Supplementary Table S1. […]

hPSC-NSCs [2] = assay: Percentage of TH positive cells produced by chemical treatment; assay type: cell-based, human; settings: chemical treatment 2.5 μM for two weeks
Experimental: as §1, §2

**Q.** For `O=C(O)c1cc(=O)c2ccccc2[nH]1` [Kynurenic acid], which fold induction at 2.5 µM (hPSC-NSCs [1]; read-out: DDC (AADC) expression by RT-PCR) is on record?
**A.** 37.5

**Q.** And the fold induction at 2.5 µM (hPSC-NSCs [1]; read-out: EN1 expression by RT-PCR)?
**A.** 9.25

**Q.** What about the fold induction at 2.5 µM (hPSC-NSCs [1]; read-out: KCNJ6 expression by RT-PCR) of the same compound?
**A.** 0.07

**Q.** What about the fold induction at 2.5 µM (hPSC-NSCs [1]; read-out: LMX1B expression by RT-PCR) of the same compound?
**A.** 6.36

**Q.** And the fold induction at 2.5 µM (hPSC-NSCs [1]; read-out: MAP2 expression by RT-PCR)?
**A.** 9.12

**Q.** What about the fold induction at 2.5 µM (hPSC-NSCs [1]; read-out: NR4A2 (NURR1) expression by RT-PCR) of the same compound?
**A.** 0.27

**Q.** And the fold induction at 2.5 µM (hPSC-NSCs [1]; read-out: Pax2 expression by RT-PCR)?
**A.** 1.16

**Q.** What about the fold induction at 2.5 µM (hPSC-NSCs [1]; read-out: SLC6A3 (DAT) expression by RT-PCR) of the same compound?
**A.** 3.41

**Q.** What about the fold induction at 2.5 µM (hPSC-NSCs [1]; read-out: TH1 expression by RT-PCR) of the same compound?
**A.** 16.8

**Q.** And the fold induction at 2.5 µM (hPSC-NSCs [1]; read-out: Tubb3 expression by RT-PCR)?
**A.** 6.43

**Q.** What about the “percentage of TH positive cells” value (hPSC-NSCs [2]) of the same compound?
**A.** 19%
